# Where “and” joins values, the source holds several entries; their conditions need not be identical. Identical values can stand only once.
# Columns and labels:
# [1] = system: Spindlin1-H3K4me3 interaction; conditions: read-out: IC50, in vitro inhibition of Spindlin1-H3K4me3 interaction; AlphaLISA; cited from earlier work
# SPIN1 = conditions: cited from earlier work
# recombinant SPIN1 = recombinant SPIN1 (Homo sapiens, UniProt Q9Y657); assay: In vitro thermal shift assay; format: binding; conditions: 100 μM compound, 1 mg/mL SPIN1, Sypro Orange
# Chain of recombinant SPIN1 (Q9Y657 50-262): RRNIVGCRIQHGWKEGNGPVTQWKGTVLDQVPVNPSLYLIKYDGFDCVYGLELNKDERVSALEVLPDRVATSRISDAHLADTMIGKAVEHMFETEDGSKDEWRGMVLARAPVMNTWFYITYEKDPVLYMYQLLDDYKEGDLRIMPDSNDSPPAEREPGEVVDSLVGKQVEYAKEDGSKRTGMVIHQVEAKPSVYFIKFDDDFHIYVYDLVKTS
# subset of MBT domains = assay: Protein domain microarray probing with biotin-tagged compounds; format: binding, human; conditions: biotinylated compound, 1 μM, Cy3-streptavidin
# [2] = target: Spindlin1 (SPIN1), three Tudor domains (Homo sapiens, UniProt Q9Y657); assay: as above; format: binding; conditions: biotinylated compound, 1 μM, Cy3-streptavidin
# Chain of Spindlin1 (SPIN1), three Tudor domains (Q9Y657 whole entry, the tested form may be a part): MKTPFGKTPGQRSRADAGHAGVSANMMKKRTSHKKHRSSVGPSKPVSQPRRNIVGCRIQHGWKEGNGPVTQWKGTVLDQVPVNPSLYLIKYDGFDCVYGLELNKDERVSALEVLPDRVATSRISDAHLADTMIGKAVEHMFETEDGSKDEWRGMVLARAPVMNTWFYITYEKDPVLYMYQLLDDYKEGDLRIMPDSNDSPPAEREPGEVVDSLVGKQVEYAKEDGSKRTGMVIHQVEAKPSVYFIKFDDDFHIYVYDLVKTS
# [3] = target: GFP-SPIN1 in transfected HeLa cells (Homo sapiens, UniProt Q9Y657); assay: Cellular thermal shift assay; format: cell-based; conditions: 20 μM, overnight
# Chain of GFP-SPIN1 in transfected HeLa cells (Q9Y657 whole entry, the tested form may be a part): as above
# Tudor domains of 53BP1 [4] = target: T1, Tudor domains of 53BP1 (Homo sapiens, UniProt Q12888); assay: Protein domain microarray probing with biotin-tagged compounds; format: binding; conditions: biotinylated compound, 1 μM, Cy3-streptavidin
# T1 sequence (Q12888 1484-1603 limits assumed): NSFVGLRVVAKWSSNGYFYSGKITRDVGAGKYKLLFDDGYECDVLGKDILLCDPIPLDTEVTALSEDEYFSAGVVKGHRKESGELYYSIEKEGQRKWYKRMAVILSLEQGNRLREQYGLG
# [5] = target: SPIN1-H3K4me3 interaction (Homo sapiens, UniProt Q9Y657); assay: Competition pulldown, bead-bound H3K4me3 peptide and GST-SPIN1; format: binding; conditions: untagged compound, increasing concentrations
# Chain of SPIN1-H3K4me3 interaction (Q9Y657 50-262): as the sequence (Q9Y657 50-262) above
# [6] = system: SPIN1 target genes (rRNA, IL1B, BST2, C1QTNF1, ALDH1A3, IFI44L) in T778 cells; assay: RT-qPCR of SPIN1-regulated genes after compound treatment; format: cell-based, human; conditions: 4 days
# [7] = target: yeast Tudor domain (SPF30^sp) (Schizosaccharomyces pombe, UniProt O94519); assay: Protein domain microarray probing with biotin-tagged compounds; format: binding; conditions: biotinylated compound, 1 μM, Cy3-streptavidin
# Chain of yeast Tudor domain (SPF30^sp) (O94519 76-139 limits assumed): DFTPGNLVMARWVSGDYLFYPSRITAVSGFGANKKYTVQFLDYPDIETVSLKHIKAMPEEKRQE
# Tudor domains of PHF20 [8] = target: Tudor domains of PHF20 (Homo sapiens, UniProt Q9BVI0); assay: as above; format: binding; conditions: biotinylated compound, 1 μM, Cy3-streptavidin
# Target sequence in this assay (Q9BVI0 4-147): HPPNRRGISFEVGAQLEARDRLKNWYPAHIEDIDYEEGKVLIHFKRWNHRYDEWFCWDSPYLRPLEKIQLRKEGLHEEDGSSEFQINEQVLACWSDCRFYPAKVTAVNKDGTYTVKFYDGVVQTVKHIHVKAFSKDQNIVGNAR
# SPIN1-TCF4 interaction = SPIN1-TCF4 interaction (Homo sapiens, UniProt Q9Y657); assay: SPIN1-TCF4 interaction assay; format: binding
# Chain of SPIN1-TCF4 interaction (Q9Y657 whole entry): as the sequence (Q9Y657 whole entry, the tested form may be a part) above
# [9] = system: SPIN1 target genes in GFP-SPIN1 transfected T778 cells; assay: RT-qPCR of SPIN1 target genes after GFP-SPIN1 overexpression; format: cell-based, human; conditions: 10 μM, 24 h after GFP-SPIN1 transfection
# GFP-SPIN1(FL) = GFP-SPIN1(FL) (Homo sapiens, UniProt Q9Y657); format: binding; conditions: HEK293 whole cell lysate, bead-immobilized biotinylated compound
# Chain of GFP-SPIN1(FL) (Q9Y657 whole entry): as the sequence (Q9Y657 whole entry, the tested form may be a part) above
# SPIN1 (SPIN1_50–262) = SPIN1 (SPIN1_50–262) (Homo sapiens, UniProt Q9Y657); assay: Isothermal titration calorimetry; format: binding; conditions: read-out: dissociation constant (Kd) with SPIN1; ITC, 25 °C, pH 7.5
# Chain of SPIN1 (SPIN1_50–262) (Q9Y657 50-262): as the sequence (Q9Y657 50-262) above
# PHF20L1 = assay: Protein domain microarray probing with biotin-tagged compounds; format: binding, human; conditions: biotinylated compound, 1 μM, Cy3-streptavidin
# SPIN2a/b = assay: Chemiprecipitation of SPIN family members with tagged compound; format: binding
# MBT domains of L3MBTL1 = MBT domains of L3MBTL1 (Homo sapiens, UniProt Q9Y468); assay: Isothermal titration calorimetry; format: binding; conditions: Kd for L3MBTL1, ITC counter screen
# Chain of MBT domains of L3MBTL1 (Q9Y468 274-585 limits assumed): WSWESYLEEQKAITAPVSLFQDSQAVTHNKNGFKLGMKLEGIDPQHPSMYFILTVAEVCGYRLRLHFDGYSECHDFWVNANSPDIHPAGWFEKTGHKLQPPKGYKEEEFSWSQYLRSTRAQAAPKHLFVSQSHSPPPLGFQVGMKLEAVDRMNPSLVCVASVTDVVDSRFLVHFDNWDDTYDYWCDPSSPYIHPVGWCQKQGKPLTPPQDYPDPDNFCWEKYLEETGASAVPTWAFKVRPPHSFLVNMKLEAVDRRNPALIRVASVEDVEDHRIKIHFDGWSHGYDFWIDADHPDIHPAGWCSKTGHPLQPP
# T778 liposarcoma cells = assay: RNA-seq of compound-treated versus SPIN1 knockdown cells; format: cell-based, human; conditions: 10 μM, 3 days
# Tudor domains of 53BP1 [10] = target: T1, Tudor domains of 53BP1; assay: Isothermal titration calorimetry; format: binding; conditions: Kd for 53BP1, ITC counter screen
# Tudor domains of PHF20 [11] = target: Tudor domains of PHF20 (Homo sapiens, UniProt Q9BVI0); assay: Isothermal titration calorimetry; format: binding; conditions: Kd for PHF20, ITC counter screen
# Target sequence in this assay (Q9BVI0 83-147 limits assumed): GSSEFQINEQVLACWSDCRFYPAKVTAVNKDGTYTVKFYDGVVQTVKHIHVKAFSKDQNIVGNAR
# SPIN4 = SPIN4 (Homo sapiens, UniProt Q56A73); assay: Chemiprecipitation of SPIN family members with tagged compound; format: binding
# Chain of SPIN4 (Q56A73 whole entry): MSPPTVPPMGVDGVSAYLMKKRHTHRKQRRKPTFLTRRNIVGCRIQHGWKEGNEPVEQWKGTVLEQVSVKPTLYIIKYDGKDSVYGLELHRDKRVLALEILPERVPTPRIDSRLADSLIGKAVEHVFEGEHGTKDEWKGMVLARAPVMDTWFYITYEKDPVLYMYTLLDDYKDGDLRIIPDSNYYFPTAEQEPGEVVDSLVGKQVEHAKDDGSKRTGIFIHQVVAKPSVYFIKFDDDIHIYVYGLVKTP
# [12] = system: GFP-SPIN1 recruitment to promoter regions of rDNA and IL1B in T778 cells; assay: α-GFP ChIP-qPCR of SPIN1 chromatin association; format: cell-based, human; conditions: 10 μM, overnight
# MBT domains of L3MBTL3 = MBT domains of L3MBTL3 (Homo sapiens, UniProt Q96JM7); assay: Isothermal titration calorimetry; format: binding; conditions: Kd for L3MBTL3, ITC counter screen
# Chain of MBT domains of L3MBTL3 (Q96JM7 232-543 limits assumed): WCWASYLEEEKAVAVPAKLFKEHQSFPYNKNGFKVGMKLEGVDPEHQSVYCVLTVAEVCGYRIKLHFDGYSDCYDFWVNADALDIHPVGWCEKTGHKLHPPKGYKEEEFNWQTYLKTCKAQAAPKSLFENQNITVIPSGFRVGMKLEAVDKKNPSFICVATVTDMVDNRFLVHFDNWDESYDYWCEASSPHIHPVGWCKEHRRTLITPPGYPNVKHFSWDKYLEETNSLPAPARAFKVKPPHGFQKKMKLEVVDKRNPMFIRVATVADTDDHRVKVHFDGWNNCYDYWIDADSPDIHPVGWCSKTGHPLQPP
# GFP-53BP1 = GFP-53BP1 (Homo sapiens, UniProt Q12888); format: binding; conditions: HEK293T whole cell lysate, bead-immobilized biotinylated compound
# Chain of GFP-53BP1 (Q12888 1144-1709): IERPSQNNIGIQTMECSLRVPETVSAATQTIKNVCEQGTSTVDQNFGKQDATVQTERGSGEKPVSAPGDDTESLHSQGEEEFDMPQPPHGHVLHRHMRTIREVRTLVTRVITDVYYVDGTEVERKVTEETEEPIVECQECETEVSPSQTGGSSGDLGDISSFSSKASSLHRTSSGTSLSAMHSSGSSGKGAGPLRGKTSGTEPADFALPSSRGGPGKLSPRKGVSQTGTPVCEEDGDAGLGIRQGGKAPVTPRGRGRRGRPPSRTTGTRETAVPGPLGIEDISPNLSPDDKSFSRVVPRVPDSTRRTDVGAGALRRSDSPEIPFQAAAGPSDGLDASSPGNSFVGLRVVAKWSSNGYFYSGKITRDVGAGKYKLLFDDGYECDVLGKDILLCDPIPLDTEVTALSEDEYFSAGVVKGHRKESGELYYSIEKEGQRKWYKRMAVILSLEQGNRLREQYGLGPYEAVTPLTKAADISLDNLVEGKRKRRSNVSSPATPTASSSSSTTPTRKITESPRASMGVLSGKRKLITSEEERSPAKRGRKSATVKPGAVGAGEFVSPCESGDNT
smiles,measurement,setting,value
COc1cc2c(cc1OCCCN1CCCC1)N=C(N)C21CCC1 [A366],IC50,[1],~0.2 µM
same,cell-based activity,SPIN1,100 µM
O=C(c1ccc(C(=O)N2CCC(CCN3CCCC3)CC2)c(Nc2ccccc2)c1)N1CCC(CCN2CCCC2)CC1 [EML405],increase of melting temperature of SPIN1,recombinant SPIN1,5 °C
same,binding to a subset of MBT domains on protein domain microarray,subset of MBT domains,bound strongly
same,binding to Spindlin1 on protein domain microarray,[2],bound strongly
same,stabilization of GFP-SPIN1 at high temperatures (CETSA),[3],stabilization
same,binding to Tudor domains of 53BP1 on protein domain microarray,Tudor domains of 53BP1 [4],bound strongly
same,inhibition of H3K4me3 peptide - GST-SPIN1 interaction,[5],higher concentrations of EML405 than EML631–633 were needed to inhibit the interaction
same,expression levels of six SPIN1-regulated candidate genes,[6]; 20 μM,decrease in the expression levels of all six candidate genes
same,binding to yeast Tudor domain SPF30^sp on protein domain microarray,[7],bound strongly
same,binding to Tudor domains of PHF20 on protein domain microarray,Tudor domains of PHF20 [8],bound strongly
same,block of SPIN1-TCF4 interaction,SPIN1-TCF4 interaction,blocked this interaction
same,SPIN1-overexpression-elevated expression of target genes,[9],dramatically attenuated
same,pulldown of GFP-SPIN1 by tagged compound,GFP-SPIN1(FL),detected the pulldown of GFP-SPIN1
same,Kd,SPIN1 (SPIN1_50–262),15 µM
same,binding to PHF20L1 on protein domain microarray,PHF20L1,bound strongly
O=C(c1ccc(C(=O)N2CCC(CCN3CCCC3)CC2)c(Nc2ccc(OCN3CCCC3)cc2)c1)N1CCC(CCN2CCCC2)CC1 [EML631],pulldown of SPIN2a/b by tagged compound,SPIN2a/b,reduced pulldown
same,Kd,MBT domains of L3MBTL1,< 100 µM and > 100 µM
same,transcripts down regulated in both SPIN1 knockdown and compound-treated cells,T778 liposarcoma cells,655
same,Kd,Tudor domains of 53BP1 [10],< 100 µM and > 100 µM
same,Kd,Tudor domains of PHF20 [11],< 100 µM and > 100 µM
same,expression levels of six SPIN1-regulated candidate genes,[6]; 10 μM,decrease in the expression levels of all six candidate genes
same,interaction of tagged compound with SPIN4,SPIN4,no interaction
same,SPIN1-overexpression-elevated expression of target genes,[9],dramatically attenuated
same,GFP-SPIN1 recruitment to promoter regions of rDNA and IL1B,[12],recruitment was blocked
same,Kd,MBT domains of L3MBTL3,< 100 µM and > 100 µM
"O=C(c1ccc(C(=O)N2CCC(N3CCCC3)CC2)c(Nc2ccccc2)c1)N1CCC(N2CCCC2)CC1 [UNC1215, reference compound]",stabilization of GFP-SPIN1 at high temperatures (CETSA),[3],not with UNC1215
same,inhibition of H3K4me3 peptide - GST-SPIN1 interaction,[5],not active
same,interaction of tagged compound with GFP-53BP1,GFP-53BP1,able to interact with GFP-53BP1

# From PMC5831360 (Nature chemical biology, 2017)
